Activity calls are given as the source filed them. The rule behind the calls is not given here.

The target of this test is Influenza A virus M2 proton channel (A/TW/4845/1999 H1N1). Nature of the test: NMR binding screen, influenza A virus M2 proton channel, Kd (AID 1549). The settings on record: M2 protein.
For the compound `c1ccc(C2NCCc3[nH]cnc32)cc1` (centres undefined), the Kd is > 4 mM (inactive). Take `NC(=O)C1CCN(c2nccc(C(F)(F)F)n2)CC1`: the Kd is > 4 mM (inactive).

Turning to `O=C(O)C1CC2CC1CCC2O` (centres undefined), the Kd is > 4 mM (inactive). For the compound `Cc1[nH]c(=O)[nH]c(=O)c1N1CCOCC1`, the Kd was > 4 mM (inactive). Next, `O=C(Nc1cccnc1)c1c(F)c(F)c(F)c(F)c1F`: > 4 mM (inactive); `Cc1c(C)[n+]([O-])c(-c2ccc([N+](=O)[O-])cc2)n1O`: > 4 mM (inactive). In the case of `COc1c(CC=C(C)C)c2c(c3oc(=O)c(-c4ccc(O)cc4)c(O)c13)C=CC(C)(C)O2`, the Kd was > 4 mM (inactive). For `NC(=O)CN1CC(=O)NC(=O)C1` the value was > 4 mM (inactive); for `CSc1nc(O)cc(=O)[nH]1`, > 4 mM (inactive); for `CC12CN3CC(C)(CN(C1)C3c1cccs1)C2O` (centres undefined), > 4 mM (inactive). Next, `C=CC(=O)N1CC2CC(C1)c1cccc(=O)n1C2` (centres undefined): > 4 mM (inactive); `O=C(NN1C(=O)c2ccccc2C1=O)c1cccs1`: > 4 mM (inactive).

With `O=C(O)c1cc2ccccc2s1`, the Kd is > 4 mM (inactive). For `Cc1cccc(-n2c(N)cc(=O)[nH]c2=S)c1` the value was > 4 mM (inactive). For the compound `Cc1c(CO)cnn1-c1ccc(F)cc1`, the Kd was > 4 mM (inactive). For `NC(=O)c1ccccc1N=Cc1ccco1` the value was > 4 mM (inactive). As to `Cc1nn(C)c(Cl)c1C(O)c1c(C)nn(C)c1Cl`, the Kd is > 4 mM (inactive).

For the compound `CSc1nn(-c2ccccc2)c(N)c1C#N`, the Kd was > 4 mM (inactive).

Turning to `COc1ccc(-c2coc3c(OC)c(OC)cc(O)c3c2=O)cc1`, the Kd is > 4 mM (inactive). Take `COC(=O)C[C@H]1C(C)(C)C(=O)[C@@H]2CC3=C4CC(=O)O[C@@H](c5ccoc5)[C@]4(C)CCC3C1(C)C2=O` (some centres undefined): the Kd is > 4 mM (inactive). For `O=C(Nc1ccon1)c1sc2cc(F)ccc2c1Cl` the value was > 4 mM (inactive); for `Cc1cc(C)c2nncn2n1`, > 4 mM (inactive); for `OCc1ccc(CN2CCOCC2)cc1`, > 4 mM (inactive).

Regarding `COC(=O)c1ccc(C(=S)N2CCOCC2)cc1`, the Kd was > 4 mM (inactive). Regarding `Cc1nn(C)c(C)c1C(=O)O`, the Kd is > 4 mM (inactive). In the case of `Cc1[nH]n(-c2ccccc2)c(=O)c1[N+](=O)[O-]`, the Kd is > 4 mM (inactive). As for `CC(=O)OC(C)(C)[C@@H]1Cc2cc3ccc(=O)oc3cc2O1`, the Kd is > 4 mM (inactive).

As to `O=C(NCc1cccs1)c1ccncc1`, the Kd is > 4 mM (inactive). In the case of `CNC(=O)Nc1ccc(C(=O)NC)cc1`, the Kd was > 4 mM (inactive). As for `COc1ccc(C2CC(=O)NN2)cc1OC1CCCC1` (centres undefined), the Kd was > 4 mM (inactive).

As to `CCOc1cc(C)c(Cl)cc1S(=O)(=O)N(C)C`, the Kd is > 4 mM (inactive). Next, `O=C1NC(=O)C(C(=S)Nc2ccccc2)C(=O)N1`: > 4 mM (inactive); `NC(N)=NOCC[C@H](N)C(=O)O`: > 4 mM (inactive); `CC(=O)O[C@@H]1CC2C(C)(C)C(=O)[C@@H]3O[C@@H]3[C@]2(C)C2CC[C@]3(C)C(=CC(=O)O[C@H]3c3ccoc3)[C@@]21C` (some centres undefined): > 4 mM (inactive). For `Nc1c(S(=O)(=O)c2ccccc2)csc1C(=O)O`, the Kd is > 4 mM (inactive). For `CC(=O)Nc1ccc2c(c1)CCC2=O`, the Kd was > 4 mM (inactive). Consider `Oc1ccccc1N=Cc1cccnc1`, for which the Kd is > 4 mM (inactive). Regarding `CCOc1ccc2nc(NS(C)(=O)=O)sc2c1`, the Kd is > 4 mM (inactive). For `O=C(O)Cc1nc(-c2ccncc2)n[nH]1` the value was > 4 mM (inactive). On to `O=C(NCc1ccccc1Br)c1ccco1`, for which the Kd is > 4 mM (inactive).

`Cn1c(=O)cc(N2CCCCC2)[nH]c1=O`: the Kd was > 4 mM (inactive).

With `O=S1(=O)CCC(NC(=S)Nc2ccccn2)C1` (centres undefined), the Kd is > 4 mM (inactive).

For `CCOC(=O)c1c(C)cc(OC)cc1O`, the Kd is > 4 mM (inactive). For the compound `CC[C@@]1(O)C[C@H](O[C@H]2C[C@H](N(C)C)[C@H](O)[C@H](C)O2)c2c(cc3c(c2O)C(=O)c2c(O)cccc2C3=O)[C@H]1C(=O)OC`, the Kd was > 4 mM (inactive). For `COc1cccc(-c2nn(-c3ccccc3)cc2CO)c1`, the Kd was > 4 mM (inactive). Turning to `COc1ccc(C(=O)/C=C2\NC(=S)NC2=O)cc1`, the Kd was > 4 mM (inactive).

With `Cc1cccc(NC(=O)c2ccc(=O)[nH]n2)c1`, the Kd was > 4 mM (inactive). On to `CC(=O)O[C@H]1CCC2(C)C3=C(CCC2C1(C)C)[C@]1(C)CCC(C(C)CCC=C(C)C)[C@@]1(C)CC3` (some centres undefined), for which the Kd is > 4 mM (inactive). Consider `Cc1ccc(NC(=O)C2CCCNC2=O)nc1` (centres undefined), for which the Kd was > 4 mM (inactive). On to `CC(=O)O[C@@H]1CC2C(C)(C)C(=O)C=C[C@]2(C)C2CC[C@@]3(C)[C@H](c4ccoc4)OC(=O)[C@H]4O[C@]43[C@@]21C` (some centres undefined), for which the Kd was > 4 mM (inactive). Consider `CC(=O)NC(=S)Nc1cccc(C(=O)O)c1C`, for which the Kd is > 4 mM (inactive).

In the case of `C[C@]12CCC(=O)C=C1CCC1C2C(=O)C[C@@]2(C)C1CC[C@]2(O)C(=O)CO` (some centres undefined), the Kd is > 4 mM (inactive).

Take `CCn1cnc2cc(NCc3ccncc3)ccc21`: the Kd is > 4 mM (inactive). Next, `CC(=O)N1CCc2cc(NC(=O)c3ccc(C)cc3)ccc21`: > 4 mM (inactive); `COc1cc2c(cc1OC)C1(O)C(=O)c3ccc(O)c(C(=O)O)c3OC1CO2` (centres undefined): > 4 mM (inactive).

For the compound `Cn1c(SCC(N)=O)nnc1-c1cccnc1`, the Kd was > 4 mM (inactive).

`COC(=O)Cc1cc(=O)n(-c2nc3ccccc3s2)[nH]1`: the Kd was > 4 mM (inactive). Consider `CS(=O)(=O)N1CCC(C(=O)NC2CCCC2)CC1`, for which the Kd is > 4 mM (inactive). Turning to `CC(=O)O[C@@H]1CC2C(C)(C)[C@H](O)CC[C@]2(C)C2CC[C@@]3(C)[C@H](c4ccoc4)OC(=O)C4OC43[C@@]21C` (some centres undefined), the Kd is > 4 mM (inactive). With `Nc1ccc(CN2CCOCC2)cc1`, the Kd was > 4 mM (inactive). For `CCOC(=O)c1snnc1-c1ccccc1` the value was > 4 mM (inactive); for `CCN(CC)c1nc2n(c(=O)n1)CCO2`, > 4 mM (inactive); for `Cn1c(-c2ccccc2F)n[nH]c1=S`, > 4 mM (inactive). Turning to `O=C1C=CC2=C3c4cc(O)c(O)cc4C[C@@]3(O)COC2=C1`, the Kd is > 4 mM (inactive). Next, `COc1cc2c(c(OC)c1OC)-c1ccc(OC)c(=O)cc1[C@@H](NC(C)=O)CC2`: > 4 mM (inactive). With `Cc1noc(C)c1CSc1nc2ccccc2[nH]1`, the Kd is > 4 mM (inactive).

As to `CC(=O)OC1CCC23C(=O)OC45CCC(C6=CC(=O)OC6)C4(C)CCC2C5CCC3(O)C1` (centres undefined), the Kd was > 4 mM (inactive).

As for `Cn1ncc(NC(=O)Nc2ccc(F)cc2F)c1C(N)=O`, the Kd is > 4 mM (inactive). `Cc1occc1C(=O)N1CCC2(CC1)OCCO2`: the Kd was > 4 mM (inactive). Regarding `COC(=O)/C(=C1\OC(=O)C(c2ccccc2)C1=O)c1ccccc1` (centres undefined), the Kd was > 4 mM (inactive). On to `O=C(O)c1cccc2nsnc12`, for which the Kd was > 4 mM (inactive).

Regarding `Cc1nc(NC2=NCCC(=O)N2)nc2ccccc12`, the Kd is > 4 mM (inactive). Regarding `Cc1ccccc1NC(=O)/C=C\C(N)=O`, the Kd is > 4 mM (inactive). Regarding `Cc1nc2sc3c(c2c(=N)n1N)CC(C)(C)OC3`, the Kd was > 4 mM (inactive). `Cc1cc(Cl)ccc1NC(=O)C(N)=O`: the Kd was > 4 mM (inactive). `Cc1ccccc1NS(=O)(=O)c1ccc(F)cc1`: the Kd is > 4 mM (inactive). In the case of `C=C1CSc2nc(=O)c3c(C)c(C)sc3n21`, the Kd is > 4 mM (inactive). For the compound `CS(=O)(=O)N1CCN(c2ncccn2)CC1`, the Kd was > 4 mM (inactive). As for `COc1cc2c(cc1OC)-c1cc3ccc(OC)c(OC)c3c[n+]1CC2`, the Kd is > 4 mM (inactive).

Turning to `CN(c1ccc(C(=O)N2CCCCC2)cc1)S(C)(=O)=O`, the Kd was > 4 mM (inactive). `NCc1nnnn1-c1ccccc1`: the Kd was > 4 mM (inactive).

For the compound `Nc1c2c3c(sc2nc(=O)n1N)CCCC3`, the Kd is > 4 mM (inactive).

`NS(=O)(=O)c1ccc(N2CCCC2=O)cc1`: the Kd was > 4 mM (inactive). Turning to `COC(=O)Nc1nc2c(C)cccc2s1`, the Kd was > 4 mM (inactive). In the case of `COC(=O)[C@@H]1C(O)CC[C@H]2CN3CCc4c([nH]c5ccccc45)[C@@H]3C[C@@H]21` (some centres undefined), the Kd was > 4 mM (inactive). For `O=c1c(O)c(-c2ccc(O)c(O)c2)oc2cc(O)ccc12` the value was > 4 mM (inactive); for `CCC(=O)OC1[C@@H]2CC3=C4CC(=O)O[C@@H](c5ccoc5)[C@]4(C)CCC3C(C)(C2=O)[C@@H](CC(=O)OC)C1(C)C` (some centres undefined), > 4 mM (inactive); for `CC(=O)NS(=O)(=O)c1ccc(C)cc1`, > 4 mM (inactive).

As to `NCc1ccc(N2CCOCC2)cc1`, the Kd is > 4 mM (inactive).

For the compound `O=C1CSC(=Nc2ccc(C(=O)O)cc2)N1`, the Kd was > 4 mM (inactive). As to `O=CN1CCN(C(=O)c2ccc(F)cc2)CC1`, the Kd is > 4 mM (inactive). As for `O=c1[nH]nnc2sc3c(c12)CCCC3`, the Kd is > 4 mM (inactive). Consider `Cc1nnc2sc(-c3csc4c3CCCC4)nn12`, for which the Kd is > 4 mM (inactive).

`Cc1ccc(/C=C/C(=O)O)cc1S(=O)(=O)NCCO`: the Kd is > 4 mM (inactive).

For `COc1ccccc1NS(=O)(=O)c1c[nH]c(=O)[nH]c1=O`, the Kd was > 4 mM (inactive). Regarding `OCc1cccc2c1OCO2`, the Kd was > 4 mM (inactive). With `NC(=O)c1ccc(N2C(=O)CCC2=O)cc1Cl`, the Kd was > 4 mM (inactive).

`NC(=O)c1ccsc1N`: the Kd is > 4 mM (inactive).

For the compound `CC1CN=C(Nc2ccccc2)S1` (centres undefined), the Kd was > 4 mM (inactive).

What is called Kd is a measure of binding affinity in units of concentration.

The values are drawn from PubChem BioAssay AID1549 (Sanford-Burnham Center for Chemical Genomics, 2009).
